One data set concerns supercoiled plasmid DNA. Briefly: In vitro DNA cleavage assay. The format is biochemical. On the procedure: Compound 3 was tested for its ability to cleave plasmid DNA in vitro in the presence of copper and the reducing agent ascorbic acid. Experiments were performed in a total of 20 μl, containing 10 mM NaH2PO4/Na2HPO4 buffer (pH 6.7), 1 μg of supercoiled plasmid DNA, 100 μM ascorbic acid, 25 μM drug compound (or vehicle), and 10 μM of CuSO4.5H20. The reaction mixture was incubated at 37° C. for 30 minutes, and 1 μl of 0.1 M EDTA was added to terminate the reaction. DNA loading buffer was added, and reactions were run at 80V for 80 minutes on a 1% agarose gel containing ethidium bromide.
To determine whether ions other than copper could suffice, DNA cleavage reactions were also carried out in the presence of zinc or iron. Reactions were performed as above, in the presence of 25 μM of CuSO4.5H20, ZnCl2, or FeCl2.4H20. […] Note that copper alone in the presence of ascorbic acid can shift the ratio of supercoiled DNA to open circular DNA.
To determine the ratios of compound to copper at which compound 3 was effective, reactions were performed as in FIG. 22A. The ratios of compound 3 to copper of 3:1, 2.5:1, 2:1, 1.5:1, and 1:1, as shown in FIG. 23 were achieved by maintaining the concentration of Cu constant at 10 μM, and varying the concentration of compound 3. The ratios of compound 3 to Cu of 1:1.5, 1:2, 1:2.5, and 1:3, were achieved by maintaining the concentration of compound 3 constant at 10 μM, and varying the concentration of copper.
Other compounds of Formula I, compounds 5, 7, 9 and 13 were also tested for their ability to cleave DNA at a ratio of 2.5:1 to copper (FIG. 23). Ratios of compound 3:copper as indicated, plus concentrations of copper in the absence of compound 3 were used in the DNA cleavage assay as described above.

Data set [1] concerns human colon carcinoma HT-29 cells. In words: XTT cell proliferation assay, HT-29. Format: cell-based. Particulars: HT-29, XTT. On the procedure: The ability of compounds of Formula I to inhibit the proliferation of human colon carcinoma HT-29 cells was tested as follows. HT-29 colon carcinoma cells used in this example and subsequent examples were maintained as a monolayer in a growth medium; McCoy's 5A modified medium (Sigma, St. Louis, Mo.), supplemented with 2 mM L-glutamine (Gibco, Grand Island, N.Y.), 10% fetal bovine serum (FBS) (Multicell, WISENT Inc. St-Bruno, QC), antibiotic-antimycotic (Multicell), at 37° C. in a 5% CO2-humidified incubator. Cells were transferred onto 150 mm tissue culture plates and grown until sub-confluency (70-80%) prior to their use. The in vitro antiproliferative activity of compounds was evaluated by incubating the cells with varying concentrations of the compounds as shown in Table 1 for 6-7 days. The efficacy of these compounds in this cell proliferation assay was measured based in the ability of live cells to reduce the tetrazolium salt XTT to orange colored compounds of formazan (XTT cell proliferation kit II, Roche Applied Science, Montreal, QC).
The ability of compounds of Formula I to inhibit the proliferation of human colon carcinoma HT-29 cells was tested as described above in Example 13.
Cell growth inhibition IC50 (μM) by compounds of Formula I was tested on various cancer cell types by XTT cell proliferation assay. The growth inhibitory effects of the compounds of Formula I as shown below for the melanoma cell line SK-MEL-2 were reproducible by Lorus Therapeutics Inc.

The next data set deals with HT-29 cells. In words: Effect of exogenous metals on growth inhibition of HT-29 cells (XTT). Particulars: HT-29, 5 days. Format: cell-based, human. On the procedure:
To determine whether metal chelation is involved in the growth inhibitory activity of compounds of Formula I, exogenous metals (ZnCl2, FeCl2.4H2O, FeCl3.4H2O, MgCl2, at 100 μM) were incubated with HT-29 cells, simultaneously with control vehicle DMSO, compound 3 (5 μM), or compound 13 (25 μM), for 5 days. […] Growth inhibition by compound 13 is predicted to occur through a different mechanism than compound 3.
To determine whether chelation of copper is involved in the growth inhibitory activity of compounds of Formula I, HT-29 cells were incubated with up to 5 μM of compound 3, in the presence or absence of 25 μM CuSO4.5H20 for 5 days.
To determine whether metal chelation is involved in the growth inhibitory activity of compound 3, various concentrations of exogenous metals were incubated with HT-29 cells, simultaneously with various concentrations of compound 3, for 5 days. The exogenous metals tested were: ZnCl2 (zinc), CuSO4.5H20 (copper), FeCl2 (iron II), FeCl3.4H20 (iron III), MgCl2 (magnesium), and CaCl2.2H20 (calcium). HT-29 cells (4×10^3/well) in 100 μL volume of the growth medium were seeded in 96-well cell culture plates and incubated overnight at 37° C. The medium was removed and replaced with a total volume of 100 μl growth medium containing concentrations of metal ions as shown in FIG. 5 with compound 3 or 0.1% DMSO vehicle control. After incubation of the cells at 37° C. for 5 days, cell viability was quantitated using the XTT (sodium 3′-[1-(phenylamino-carbonyl)-3,4-tetrazolium}-bis (4-methoxy-6-nitro) benzene sulfonic acid hydrate) calorimetric assay (Roche Applied Science, Penzberg, Germany). XTT labeling reagent (1 mg/mL) was mixed with electron-coupling reagent, following the manufacturer's instructions, and 50 μl of the mixture was added directly to the cells cultured in 100 μl growth medium. The plates were further incubated at 37° C. for 4 hours and the absorbance of each well was measured by a multi-well spectrophotometer (Bio-Tek Instruments Inc.) at 460 nm. The data were adjusted relative to the blank, and were expressed as % of cell growth compared to the DMSO control.
To determine the ability of compounds 5 and 7 to chelate metals in cells, exogenous metals were added to HT-29 cells, simultaneously with various concentrations of compounds 5 and 7. Briefly, HT-29 cells were treated with various concentrations compounds 5 and 7, plus or minus copper (25 μM CuSO4.5H20) or zinc (100 μM of ZnCl2), for 5 days. Cell viability was determined by XTT assay. The effects of copper and zinc on growth inhibition of HT-29 cells are shown in FIG. 6A for compound 5 and in FIG. 6B for compound 7.
Effect of metal ion supplements on compound 3-mediated cell growth inhibition of HT-29 cells was examined by XTT cell proliferation assay.

Data set [2] deals with human lung NCI-H460 cells. Briefly: Large-cell lung carcinoma NCI-H460 xenograft model, tumour growth. The format is in vivo, CD-1 female nude mice. Particulars: Lutrol (i.p.), lipid-based (i.v.) or water-based (i.p.) formulations. On the procedure:
The ability of compounds of Formula I to inhibit large-cell lung tumour growth in vivo was tested by determining the efficacy of compound 3 in a xenograft model as described below. Compound 3 was tested as a lipid-based formulation having the following composition: distearoylphosphatidylethanolamine-polyethylene glycol 2000 (DSPE-PEG/5% mole) and egg phosphatidylcoline (ePC/95% mole). The formulation was prepared as follows: Stock solutions of compound 3 and lipid (ePC and DSPE-PEG) were prepared in DMF. Specific volumes of the stock solutions of compound 3 and lipid were then mixed in order to achieve a final lipid concentration of 25 mg/mL (ePC:DSPE-PEG=95:5 (mol %) and a compound 3 to total lipid ratio of 1:10 (w/w). The mixture was stirred for four hours, thoroughly dried under nitrogen and left overnight under vacuum. HEPES buffer saline (HBS 0.01 M, pH=7.4) warmed to 60° C. was then added in order to rehydrate the dried film. The solutions were vortexed, stirred for 48 hours at room temperature and sonicated for two and half hours. The formulation was then centrifuged at 1000 rpm for 5 minutes to remove any free compound 3.
CD-1 female nude mice (6-7 weeks, 7 mice per treatment group) were injected […] with human lung NCI-H460 cells (3×10^6 cells in 0.1 ml PBS) subcutaneously. Treatment of the mice with vehicle or compound 3 was initiated 5 days post-inoculation (size of tumours=20-40 mm^3) for 7-day cycles of five days followed by a 2 day break for the duration of the experiment (35 days). Mice were treated with 80 mg/kg/d for the first week followed by 40 mg/kg/d until the end of the experiment. The size of the tumours was measured over the course of the experiment using calipers, and the weight of the tumours was measured after the animals were sacrificed.
The ability of compounds 3, 5, and 7 to inhibit large-cell lung carcinoma cell growth in vivo was tested in the mouse xenograft model as described in Example 27. The compounds were tested as Lutrol formulations (administered i.p.), lipid-based formulations micelles (administered i.v.), or water-based formulations (administered i.p.). The vehicle controls included Lutrol control (administered i.p.), lipid micelle control (administered i.v.), and water control (administered i.p.). Lutrol formulations contained 15% Lutrol and 10% DMSO. The composition of the lipid-based formulations and preparation of same was as described in Example 27 above.

The format of data set [3] is in vivo. As to conditions: i.p. twice per day for 1 week. On the procedure:
To test the sub-acute toxicity of the compounds of Formula I, female mice were injected with the compounds and toxicity was evaluated based on mortality, changes in behaviour, appearance and weight. Briefly, ICR normal female mice (5-6 weeks old; n=33) weighing about 0.020 kg in body weight, were injected with various compounds at 100 mg/kg and 50 mg/kg or with the vehicle alone (Lutrol (M68, micronized)). Groups of 3 ICR female mice were injected with one intra-peritoneal (i.p.) injection of 250 μl of each compound at 4.0 mg/ml twice per day (100 mg/kg) for 1 week (Group I); or with one intra-peritoneal (i.p.) injection of 250 μl of each compound at 2.0 mg/ml twice per day (50 mg/kg) for 1 week (Group II), or with one intra-peritoneal (i.p.) injection of 250 μl of lutrol vehicle control twice per day for 1 week (Control Group).
The compounds to be tested were prepared to provide enough for one week at concentrations of 4.0 mg/ml and 2.0 mg/ml. Briefly, 50 mg of each compound was dissolved in 1.25 ml of 100% DMSO and diluted with 6.25 ml of Lutrol (30% in water) and 5 ml water, to prepare a solution of 4 mg/ml compound in 15% Lutrol in water. Next, 4 ml of each prepared solution was further diluted with 4 ml of 15% Lutrol in water to provide the 2.0 mg/ml solution of each compound. For the vehicle control solution, 8 ml of 15% Lutrol in water was prepared. Compounds at concentrations of 4.0 mg/ml and 2.0 mg/ml and the vehicle control were administered as described above.

Where [4] appears, read: 25 μM compound, 10 μM CuSO4, 100 μM ascorbic acid, 37° C., 30 minutes.
Setting [5] is: Homo sapiens, 6-7 days, Table 3, read-out: IC50.
Setting [6] is: Homo sapiens, as Example 13, Table 7, read-out: IC50.

“Also recorded” adds a separate entry of the source. Read-outs that look alike come from different tables or passages of the source. Some results are limits rather than exact numbers.

Regarding `c1cnc2c(c1)ccc1cccnc12` [1,10-phenanthroline (OP), 1,10-phenanthroline, reference compound], the “cleavage of plasmid DNA” value is recorded as “able to cleave plasmid DNA” with supercoiled plasmid DNA (setting [4]) and “Neither compound 3 nor OP was able to cleave DNA” in the data set on supercoiled plasmid DNA (absence of copper or reducing agent).
As to `Cc1[nH]c2ccc(Cl)cc2c1-c1nc2c3cccnc3c3ncccc3c2[nH]1` [Compound 5], the IC50 in data set [1] (setting [5]) amounted to 0.35 µM; in data set [1] (setting [6]) it was 0.35 mg/L. Also, the “effect of exogenous copper on growth inhibition” value in the data set on HT-29 cells (25 μM CuSO4, low concentrations of compound (less than 2 μM)) is listed as “copper impaired the activity only at low concentrations”. Also, the “effect of exogenous zinc on growth inhibition” value with HT-29 cells (ZnCl2 (100 μM)) is listed as “zinc impaired the growth inhibitory activities”. For the same compound, in data set [2], the “tumour size and weight” value was “able to decrease the size (FIG. 16A) and weight (FIG. 16B) of tumours”.
Consider `c1ccc2c(-c3nc4c5cccnc5c5ncccc5c4[nH]3)c(-c3ccncc3)[nH]c2c1` [Compound 11], for which the Sub-acute toxicity entry in data set [3] (50 mg/Kg) was “−”; in data set [3] (100 mg/Kg), “+”. In addition, the half-maximal inhibitory concentration (IC50) in data set [1] (setting [5]) is more than 2.5 µM; in data set [1] (setting [6]) it was more than 2.5 mg/L.
`c1ccc2c(-c3nc4c5cccnc5c5ncccc5c4[nH]3)c(CN3CCCCC3)[nH]c2c1` [Compound 12]: the Sub-acute toxicity entry in data set [3] (50 mg/Kg) is “−”; in data set [3] (100 mg/Kg) it was “+”. Also, in the data set on supercoiled plasmid DNA (setting [4]), the “cleavage of plasmid DNA” value is on record as “capable of cleaving DNA”. Also, the IC50 in data set [1] (setting [5]) worked out at 0.28 µM; in data set [1] (setting [6]), 0.28 mg/L.
As to `Cc1[nH]c2ccccc2c1-c1nc2c3ccccc3c3ccccc3c2[nH]1` [Compound 13, reference compound], the “cleavage of plasmid DNA” value in the data set on supercoiled plasmid DNA (setting [4]) is given as “unable to cleave DNA”. Moreover, the “effect of exogenous metals on activity of the negative control” value with HT-29 cells (compound 13 25 μM) is listed as “None of the metals had any effect; also recorded: Copper had no effect on growth inhibition”.
In data set [1] (as Example 13, Table 7), `CC(C)(C)c1[nH]c2ccc(Br)cc2c1-c1nc2c3cccnc3c3ncccc3c2[nH]1` [Compound 87] yielded a half-maximal inhibitory concentration (IC50) of 0.42 mg/L.
In data set [1] (as Example 13, Table 7), `CC(C)(C)c1[nH]c2c(F)cccc2c1-c1nc2c3cccnc3c3ncccc3c2[nH]1` [Compound 88] registered an IC50 of 0.38 mg/L.

(Values after patent US8148392B2, “2-indolyl imidazo [4,5-d] phenanthroline derivatives and their use in the treatment of cancer” (Lorus Therapeutics Inc., priority 2005, dated 2012).)
